{"source": "patent US20230092679A1", "about": "“MCL-1 INHIBITOR ANTIBODY-DRUG CONJUGATES AND METHODS OF USE” (NOVARTIS AG, priority 2019, published 2023)", "assay_type_in_all_cases": "cell-based", "key": {"[1]": {"test_system": "representative cancer cell lines", "test": "CellTiter-Glo proliferation assay (Example 6), summary over the cell lines", "conditions": "120 h, 5 days, read-out: IC50 values (range over cell lines)", "description": "Mcl-1 ADCs were tested on nine endogenous cancer cell lines and one isogenic cell line engineered to overexpress a target of interest. Six targets were assessed: HER2, BCMA, CD38, CD48, CD79b, and CD33. […]\nThe ability of Mcl-1 ADCs to inhibit cell proliferation and survival was assessed using a Promega CellTiter-Glo® proliferation assay. […] Cell viability and cell density were determined using a cell counter (Vi-Cell XR Cell Viability Analyzer, Beckman Coulter). […] Plates were incubated at 5% CO2, 37° C. for 5 days in a tissue culture incubator, after which cell viability was assessed through the addition of 25 μl of CellTiter Glo® (Promega, Cat. No. G7573), a reagent which lyses cells and measures total adenosine triphosphate (ATP) content. Plates were incubated at room temperature for 10 minutes to stabilize luminescent signals prior to reading using a luminescence reader (EnVision Multilabel Plate Reader, PerkinElmer). […]"}, "nb4": {"test_system": "nb4", "test": "In vitro ADC activity, AML cell lines, CellTiter-Glo (Example 20)", "conditions": "nb4, 5 days"}, "HCC2218": {"test_system": "HCC2218", "test": "CellTiter-Glo proliferation assay (Example 6)", "conditions": "HER2 Mcl-1 ADCs and payload P1, 5 days", "description": "(§1) Mcl-1 ADCs were tested on nine endogenous cancer cell lines and one isogenic cell line engineered to overexpress a target of interest. Six targets were assessed: HER2, BCMA, CD38, CD48, CD79b, and CD33.\n(§2) Cell lines • HER2: HCC1954 (ATCC No. CRL-2338 cultured in RPMI-1640+10% FBS) and HCC2218 (ATCC No. CRL-2343 cultured in RPMI-1640+10% FBS). • BCMA: NCI-H929 (ATCC No. CRL-9068 cultured in RPMI-1640+10% FBS+0.05 mM 2-mercaptoethanol). • CD38: A4-Fuk (JCRB No. JCRB0097 cultured in RPMI-1640+10% FBS) and KMS-21 BM (JCRB No. JCRB1185 cultured in RPMI-1640+10% FBS). • CD48: NCI-H929 (ATCC No. CRL-9068 cultured in RPMI-1640+10% FBS+0.05 mM 2-mercaptoethanol), OPM-2 (DSMZ No. ACC-50 cultured in RPMI-1640+10% FBS) and AMO1 (DSMZ No. ACC-538 cultured in RPMI-1640+20% FBS). • CD79b: RS4;11 (ATCC No. CRL-1873 cultured in RPMI-1640+10% FBS). • CD33: MOLM-13 (DSMZ No. ACC-554 cultured in RPMI-1640+10% FBS) and an isogenic cell line, AMO1-CD33 clone D2. AMO1 cell line was transfected to generate a stable AMO1 cell line expressing the exogenous protein of interest, CD33, AMO1-CD33 clone D2 (cultured in RPMI-1640+20% FBS).\n(§3) The ability of Mcl-1 ADCs to inhibit cell proliferation and survival was assessed using a Promega CellTiter-Glo® proliferation assay. Cell lines were cultured in media optimal for their growth at 5% CO2, 37° C. in a tissue culture incubator. Prior to seeding for the proliferation assay, the cells were split at least 2 days before the assay to ensure optimal growth density. On the day of seeding, adherent cells were lifted off tissue culture flasks using 0.25% trypsin. Cell viability and cell density were determined using a cell counter (Vi-Cell XR Cell Viability Analyzer, Beckman Coulter). […] Cells were seeded at a density of 1,000 cells per well in 45 μl of standard growth media. Plates were incubated at 5% CO2, 37° C. overnight in a tissue culture incubator. The next day, free Mcl-1 payload (P1), targeting Mcl-1 ADCs, and non-targeting isotype ADCs were prepared at 10× in standard growth media. The prepared drug treatments were then added to the cells resulting in final concentrations of 0.0005-500 nM and a final volume of 50 μl per well. Each drug concentration was tested in quadruplets. Plates were incubated at 5% CO2, 37° C. for 5 days in a tissue culture incubator, after which cell viability was assessed through the addition of 25 μl of CellTiter Glo® (Promega, Cat. No. G7573), a reagent which lyses cells and measures total adenosine triphosphate (ATP) content. Plates were incubated at room temperature for 10 minutes to stabilize luminescent signals prior to reading using a luminescence reader (EnVision Multilabel Plate Reader, PerkinElmer). To evaluate the effect of the drug treatments, luminescent counts from wells containing untreated cells (100% viability) were used to normalize treated samples. A variable slope model was applied to fit a nonlinear regression curve to the data in GraphPad PRISM version 7.02 software. IC50 and Amax values were extrapolated from the resultant curves."}, "OPM-2": {"test_system": "OPM-2", "test": "CellTiter-Glo proliferation assay (Example 6)", "conditions": "CD48 Mcl-1 ADCs and payload P1, 5 days", "description": "as §1, §2, §3"}, "MOLM-13": {"test_system": "MOLM-13", "test": "CellTiter-Glo proliferation assay (Example 6)", "conditions": "CD33 Mcl-1 ADCs and payload P1, 5 days", "description": "as §1, §2, §3"}, "RS4;11": {"test_system": "RS4;11", "test": "CellTiter-Glo proliferation assay (Example 6)", "conditions": "CD79b Mcl-1 ADCs and payload P1, 5 days", "description": "as §1, §2, §3"}, "HCC1954": {"test_system": "HCC1954", "test": "CellTiter-Glo proliferation assay (Example 6)", "conditions": "HER2 Mcl-1 ADCs and payload P1, 5 days", "description": "as §1, §2, §3"}, "NCI-H929": {"test_system": "NCI-H929", "test": "CellTiter-Glo proliferation assay (Example 6)", "conditions": "for Amax H929: in %; for IC50: Homo sapiens, NCI-H929, 120 h", "description": "as §1, §2, §3"}, "[2]": {"conditions": "BCMA Mcl-1 ADCs (Table 29) and payload P1, 5 days"}, "[3]": {"conditions": "CD48 Mcl-1 ADCs (Table 25) and payload P1, 5 days"}}, "note": "pIC50: −log10 of the molar value. Read-outs that look alike come from different tables or passages of the source."}
{"compound": "COc1ccccc1-c1nccc(COc2ccccc2C[C@@H](Oc2ncnc3sc(-c4ccc(F)cc4)c(-c4ccc(OCCN5CCN(C)CC5)c(Cl)c4C)c23)C(=O)O)n1", "note": "[P1, (2R)-2-[5-[3-chloro-2-methyl-4-[2-(4-methylpiperazin-1-yl)ethoxy]phenyl]-6-(4-fluorophenyl)thieno[2,3-d]pyrimidin-4-yl]oxy-3-[2-[[2-(2-methoxyphenyl)pyrimidin-4-yl]methoxy]phenyl]propanoic acid]", "values": [{"measurement": "pIC50", "setting": "[1]; HER2-positive cancer cell lines", "value": "7.22 to 8.00"}, {"measurement": "pIC50", "setting": "[1]; representative cancer cell lines except HER2-positive", "value": "8.25 to 10.42"}, {"measurement": "GI50", "setting": "nb4; Homo sapiens, NB-4, 120 h", "value": 3, "unit": "nM"}, {"measurement": "Amax", "setting": "nb4; in % (unit assumed)", "value": "−62"}, {"measurement": "Amax HCC2218", "setting": "HCC2218; in % (unit assumed)", "value": 100.40}, {"measurement": "IC50", "setting": "HCC2218; Homo sapiens, HCC2218, 120 h", "value": 14.1, "unit": "nM"}, {"measurement": "Amax OPM2", "setting": "OPM-2", "value": 22.97}, {"measurement": "IC50", "setting": "OPM-2; Homo sapiens, OPM-2, 120 h, read-out: IC50 (nM) OPM2", "value": 0.136, "unit": "nM"}, {"measurement": "Amax MOLM13", "setting": "MOLM-13", "value": 128.80}, {"measurement": "IC50", "setting": "MOLM-13; Homo sapiens, MOLM-13, 120 h, read-out: IC50 (nM) MOLM13", "value": 2.44, "unit": "nM"}, {"measurement": "Amax RS; 411", "setting": "RS4;11", "value": 132.40}, {"measurement": "IC50", "setting": "RS4;11; Homo sapiens, RS4-11, 120 h, read-out: IC50 (nM) RS, 411", "value": 0.299, "unit": "nM"}, {"measurement": "Amax HCC1954", "setting": "HCC1954; unit assumed", "value": 64.8, "unit": "%"}, {"measurement": "IC50", "setting": "HCC1954; Homo sapiens, HCC1954, 120 h", "value": 63.5, "unit": "nM"}, {"measurement": "Amax H929", "setting": "NCI-H929; [2]", "value": 89.16}, {"measurement": "Amax H929", "setting": "NCI-H929; [3]", "value": 25.79}, {"measurement": "IC50", "setting": "NCI-H929; [2]", "value": 5.61, "unit": "nM"}, {"measurement": "IC50", "setting": "NCI-H929; [3]", "value": 0.394, "unit": "nM"}]}
